The values that follow are results of earlier work, collected in patent US20240307482A1, “TOPICAL COMPOSITIONS” (Illustris Pharmaceuticals, Inc., priority 2019, published 2024).

The subject of the data set is wrinkles. The following applies: formulations with 10% concentration acetyl hexapeptide; after 30 days of trial use.

With acetyl hexapeptide-3, the “reduce the depth of wrinkles” value is “up to 30%”.
